Like-named read-outs stand apart in the source and are kept apart here.

The values below come from article PMC3026848 (Bioorganic & medicinal chemistry, 2010).

The conditions of data set [1]: high dosages; cited from earlier work.
For data set [2] the following is noted: cited from earlier work.
A further data set relates to A431(human skin cancer). Nature of the data set: Screening against A431. Type of data set: cell-based. The note with it: unpublished data from this laboratory.
The test system of data set [3] is PC-3 (human prostate cancer). Nature of the data set: Screening against PC-3. Type of data set: cell-based. The note with it: unpublished data from this laboratory.
Data set [4] deals with UO-31 (human renal cancer). Kind of data set: Screening against UO-31. Type of data set: cell-based. The note with it: unpublished data from this laboratory.
In the next data set the test system is UACC-62 cells. Kind of data set: Cell cycle distribution by flow cytometry. It counts as cell-based, human. As to conditions: UACC-62, 6 days, 0.01 µM to 1 µM, PI staining.
The test system of data set [5] is NCI-H226 (human lung cancer). Kind of data set: Screening against NCI-H226. The note with it: unpublished data from this laboratory. Type of data set: cell-based.
A further data set relates to melanoma. The note with it: melanoma chemotherapy; cited from earlier work.

As to `O=C(Nc1ccc(Cl)cc1)NS(=O)(=O)c1ccc2c(c1)CCC2` [Sulofenur, reference compound], the “adverse effects in clinical trials” value in data set [1] is “hemolytic anemia and methemoglobinemia were observed”. Moreover, in data set [2], the protein binding result was “greater than 99%”.

For `CC(=O)N[C@@H](CSC(=O)Nc1ccc(Cl)cc1)C(=O)O` [NACC, N-Acetyl-S-(p-chlorophenylcarbamoyl)cysteine], in the data set with A431(human skin cancer), the “activity against A431” value is on record as “Poor activities”. Also, the “activity against PC-3” value in data set [3] is listed as “Poor activities”. The “activity against UO-31” value in data set [4] is “Poor activities”. Also, the protein binding in data set [2] (reported earlier) is reported as 84%. In the data set with UACC-62 cells, the “effect on cell cycle distribution” value is given as “no change in cell cycle distribution was observed”. In addition, the “activity against NCI-H226” value in data set [5] is on record as “Poor activities”.

As for `CN(C)/N=N/c1[nH]cnc1C(N)=O` [Dacarbazine, dacarbazine], in the data set with melanoma, the response rate was 10% to 20.
